Our source for the IC50 values is patent US10577363B2, “Substituted piperidine compounds” (EPIZYME, INC., priority 2014, dated 2020).

The IC50 is the concentration that inhibits the measured activity by half.

Assay [1] deals with T1, SMYD3 (Homo sapiens (Human), UniProt Q9H7B4). Kind of assay: SMYD3 biochemical assay (SPA, 3H-SAM methylation of MEKK2 protein substrate). The note with it: read-out: SMYD3 Biochem IC50. In short, it runs like this: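 Native full-length human SMYD3 (E. coli-expressed, tags removed) was preincubated with compound for 30 min at room temperature in 25 mM Tris-Cl pH 8.0, 1 mM TCEP, 0.005% BSG, 0.005% Tween 20. Reaction was started with 3H-SAM plus GST-MEKK2, quenched with 100 uM unlabeled SAM, and read by SPA scintillation counting.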

The target of assay [2] is T1, SMYD3. Kind of assay: SMYD3 cell assay (Trimethyl-MEKK2 In-Cell Western in 293T/17 cells). It counts as cell-based. Particulars: read-out: SMYD3 Cell IC50. In outline: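 In-Cell Western ratio of trimethyl-Lys260 MEKK2 to anti-flag signal; percent inhibition from DMSO and maximum-inhibition controls, IC50 by non-linear regression, triplicates.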

T1 sequence (Q9H7B4 whole entry): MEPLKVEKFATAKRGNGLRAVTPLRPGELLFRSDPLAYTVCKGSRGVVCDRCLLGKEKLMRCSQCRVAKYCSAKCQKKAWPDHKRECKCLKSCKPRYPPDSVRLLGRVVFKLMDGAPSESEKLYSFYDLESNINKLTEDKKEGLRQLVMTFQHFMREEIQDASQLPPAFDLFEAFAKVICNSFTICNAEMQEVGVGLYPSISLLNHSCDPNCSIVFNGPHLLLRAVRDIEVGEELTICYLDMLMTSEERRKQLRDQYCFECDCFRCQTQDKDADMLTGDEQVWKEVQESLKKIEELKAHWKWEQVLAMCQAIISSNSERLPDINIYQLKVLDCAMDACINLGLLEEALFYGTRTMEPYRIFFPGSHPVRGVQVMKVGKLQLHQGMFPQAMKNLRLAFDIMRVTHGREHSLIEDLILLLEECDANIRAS

With `CN(C)CCN(C)CCS(=O)(=O)N1[C@@H]2CC[C@H]1C[C@@H](NC(=O)c1cc(C3CC3)on1)C2` [compound 603, 5-cyclopropyl-N-((1R,3r,5S)-8-((2-((2-(dimethylamino)ethyl)(methyl)amino)ethyl)sulfonyl)-8-azabicyclo[3.2.1]octan-3-yl)isoxazole-3-carboxamide], the results for the IC50 on SMYD3 [1] (Table 2A) and on SMYD3 [2] (Table 2A) were 14.7 nM and 239 nM, respectively.

Take `COCCNCCCS(=O)(=O)N1[C@@H]2CC[C@H]1C[C@@H](NC(=O)c1cc(C3CC3)on1)C2` [compound 604, 5-cyclopropyl-N-((1R,3r,5S)-8-((3-((2-methoxyethyl)amino)propyl)sulfonyl)-8-azabicyclo[3.2.1]octan-3-yl)isoxazole-3-carboxamide]: the figures for the IC50 at SMYD3 [1] (Table 2A) and on SMYD3 [2] (Table 2A) were 16.2 nM and 200 nM, respectively.

`CNCCNCCS(=O)(=O)N1[C@@H]2CC[C@H]1C[C@@H](NC(=O)c1cc(C3CC3)on1)C2` [compound 605, 5-cyclopropyl-N-((1R,3r,5S)-8-((2-((2-(methylamino)ethyl)amino)ethyl)sulfonyl)-8-azabicyclo[3.2.1]octan-3-yl)isoxazole-3-carboxamide]: the IC50 at SMYD3 [1] (Table 2A) was 17.5 nM; on SMYD3 [2] (Table 2A) it was 302 nM.

`CN1CCC(N(C)S(=O)(=O)N2[C@@H]3CC[C@H]2C[C@@H](NC(=O)c2cc(C4CC4)on2)C3)CC1` [compound 606, 5-cyclopropyl-N-((1R,3r,5S)-8-(N-methyl-N-(1-methylpiperidin-4-yl)sulfamoyl)-8-azabicyclo[3.2.1]octan-3-yl)isoxazole-3-carboxamide]: the half-maximal inhibitory concentration (IC50) on SMYD3 [1] (Table 2A) is 17.7 nM; on SMYD3 [2] (Table 2A), 235 nM.

Turning to `CC(C)N1CCC(CS(=O)(=O)N2CC[C@@H](NC(=O)c3cc(C4CC4)on3)C[C@H]2C)CC1` [compound 607, 5-cyclopropyl-N-((2R,4R)-1-(((1-isopropylpiperidin-4-yl)methyl)sulfonyl)-2-methylpiperidin-4-yl)isoxazole-3-carboxamide], the IC50 was 17.8 nM at SMYD3 [1] (Table 2A) and 1170 nM at SMYD3 [2] (Table 2A).

As to `C[C@H]1CN(S(=O)(=O)CC2CCN(CCCO)CC2)CC[C@H]1NC(=O)c1cc(C2CC2)on1` [compound 608, 5-cyclopropyl-N-((3S,4R)-1-(((1-(3-hydroxypropyl)piperidin-4-yl)methyl)sulfonyl)-3-methylpiperidin-4-yl)isoxazole-3-carboxamide], the IC50 on SMYD3 [1] (Table 2A) worked out at 17.8 nM; at SMYD3 [2] (Table 2A), 225 nM.

Take `C[C@H]1C[C@@H](NC(=O)c2cc(C3CC3)on2)CCN1S(=O)(=O)CCCNCc1cccc(C(F)(F)F)c1` [compound 609, 5-cyclopropyl-N-((2S,4S)-2-methyl-1-((3-((3-(trifluoromethyl)benzyl)amino)propyl)sulfonyl)piperidin-4-yl)isoxazole-3-carboxamide]: the IC50 was 18.8 nM on SMYD3 [1] (Table 2A) and 451 nM at SMYD3 [2] (Table 2A).

With `CN(C)CCN(C)CCCS(=O)(=O)N1[C@@H]2CC[C@H]1C[C@@H](NC(=O)c1cc(C3CC3)on1)C2` [compound 610, 5-cyclopropyl-N-((1R,3r,5S)-8-((3-((2-(dimethylamino)ethyl)(methyl)amino)propyl)sulfonyl)-8-azabicyclo[3.2.1]octan-3-yl)isoxazole-3-carboxamide], the IC50 on SMYD3 [1] (Table 2A) turned out to be 19.4 nM; at SMYD3 [2] (Table 2A), 332 nM.

`CC(C)CN1CCC(CS(=O)(=O)N2CC[C@@H](NC(=O)c3cc(C4CC4)on3)C[C@H]2C)CC1` [compound 611, 5-cyclopropyl-N-((2R,4R)-1-(((1-isobutylpiperidin-4-yl)methyl)sulfonyl)-2-methylpiperidin-4-yl)isoxazole-3-carboxamide]: the IC50 on SMYD3 [1] (Table 2A) is 20 nM; on SMYD3 [2] (Table 2A) it was 1030 nM.

For `C[C@H]1C[C@@H](NC(=O)c2cc(C3CC3)on2)CCN1S(=O)(=O)CCCNCC1CCCCC1` [compound 612, N-((2S,4S)-1-((3-((cyclohexylmethyl)amino)propyl)sulfonyl)-2-methylpiperidin-4-yl)-5-cyclopropylisoxazole-3-carboxamide], the half-maximal inhibitory concentration (IC50) is 20.7 nM on SMYD3 [1] (Table 2A) and 217 nM at SMYD3 [2] (Table 2A).

For `C[C@H]1CN(S(=O)(=O)CC2CCN(CCCC(F)(F)F)CC2)CC[C@H]1NC(=O)c1cc(C2CC2)on1` [compound 613, 5-cyclopropyl-N-((3S,4R)-3-methyl-1-(((1-(4,4,4-trifluorobutyl)piperidin-4-yl)methyl)sulfonyl)piperidin-4-yl)isoxazole-3-carboxamide], the results for the half-inhibitory concentration (IC50) at SMYD3 [1] (Table 2A) and at SMYD3 [2] (Table 2A) were 20.9 nM and 212 nM, respectively.

Take `C[C@H]1CN(S(=O)(=O)N2CCC(NCc3ccccc3)CC2)CC[C@H]1NC(=O)c1cc(C2CC2)on1` [compound 614, N-((3S,4R)-1-((4-(benzylamino)piperidin-1-yl)sulfonyl)-3-methylpiperidin-4-yl)-5-cyclopropylisoxazole-3-carboxamide]: the values for the IC50 at SMYD3 [1] (Table 2A) and at SMYD3 [2] (Table 2A) were 21.2 nM and 304 nM, respectively.

As to `C[C@H]1C[C@@H](NC(=O)c2cc(C3CC3)on2)CCN1S(=O)(=O)N1C2CCC1CNC2` [compound 615, N-((2S,4S)-1-((3,8-diazabicyclo[3.2.1]octan-8-yl)sulfonyl)-2-methylpiperidin-4-yl)-5-cyclopropylisoxazole-3-carboxamide], the figures for the IC50 at SMYD3 [1] (Table 2A) and at SMYD3 [2] (Table 2A) were 21.7 nM and 233 nM, respectively.

As for `C[C@@H]1C[C@H](NC(=O)c2cc(C3CC3)on2)CCN1C(=O)c1ccc(C2CCCNC2)cc1` (stereo partly drawn) [compound 616, 5-cyclopropyl-N-((2R,4R)-2-methyl-1-(4-(piperidin-3-yl)benzoyl)piperidin-4-yl)isoxazole-3-carboxamide], the IC50 was 21.9 nM at SMYD3 [1] (Table 2A) and 595 nM at SMYD3 [2] (Table 2A).

For the compound `CCN1CCN(S(=O)(=O)N2CC[C@H](NC(=O)c3cc(C4CC4)on3)C[C@@H]2C)CC1` [compound 617, 5-cyclopropyl-N-((2S,4S)-1-((4-ethylpiperazin-1-yl)sulfonyl)-2-methylpiperidin-4-yl)isoxazole-3-carboxamide], the results for the IC50 on SMYD3 [1] (Table 2A) and at SMYD3 [2] (Table 2A) were 22.8 nM and 183 nM, respectively.

Consider `C[C@H]1CN(S(=O)(=O)CC2CCNCC2)CC[C@H]1NC(=O)c1cc(C2CC2)on1` [compound 618, 5-cyclopropyl-N-((3S,4R)-3-methyl-1-((piperidin-4-ylmethyl)sulfonyl)piperidin-4-yl)isoxazole-3-carboxamide], for which the IC50 on SMYD3 [1] (Table 2A) came out at 23.2 nM; on SMYD3 [2] (Table 2A), 220 nM.

Regarding `O=C(N[C@H]1C[C@H]2CC[C@@H](C1)N2S(=O)(=O)CC1CCN(CCN2CCOCC2)CC1)c1cc(C2CC2)on1` [compound 619, 5-cyclopropyl-N-((1R,3r,5S)-8-(((1-(2-morpholinoethyl)piperidin-4-yl)methyl)sulfonyl)-8-azabicyclo[3.2.1]octan-3-yl)isoxazole-3-carboxamide], the IC50 on SMYD3 [1] (Table 2A) was 23.2 nM; on SMYD3 [2] (Table 2A), 592 nM.

For the compound `CNCCN(C)CCS(=O)(=O)N1[C@@H]2CC[C@H]1C[C@@H](NC(=O)c1cc(C3CC3)on1)C2` [compound 620, 5-cyclopropyl-N-((1R,3r,5S)-8-((2-(methyl(2-(methylamino)ethyl)amino)ethyl)sulfonyl)-8-azabicyclo[3.2.1]octan-3-yl)isoxazole-3-carboxamide], the IC50 on SMYD3 [1] (Table 2A) amounted to 23.3 nM; at SMYD3 [2] (Table 2A), 339 nM.

On to `C[C@H]1CN(S(=O)(=O)N2CCNCC2)CC[C@H]1NC(=O)c1cc(C2CC2)on1` [compound 621, 5-cyclopropyl-N-((3S,4R)-3-methyl-1-(piperazin-1-ylsulfonyl)piperidin-4-yl)isoxazole-3-carboxamide], for which the results for the IC50 at SMYD3 [1] (Table 2A) and on SMYD3 [2] (Table 2A) were 23.4 nM and 223 nM, respectively.

Turning to `CNCCN(C)CCCS(=O)(=O)N1[C@@H]2CC[C@H]1C[C@@H](NC(=O)c1cc(C3CC3)on1)C2` [compound 622, 5-cyclopropyl-N-((1R,3r,5S)-8-((3-(methyl(2-(methylamino)ethyl)amino)propyl)sulfonyl)-8-azabicyclo[3.2.1]octan-3-yl)isoxazole-3-carboxamide], the IC50 came out at 23.4 nM at SMYD3 [1] (Table 2A) and 464 nM at SMYD3 [2] (Table 2A).

With `C[C@H]1CN(S(=O)(=O)CC2CCN(CCO)CC2)CC[C@H]1NC(=O)c1cc(C2CC2)on1` [compound 623, 5-cyclopropyl-N-((3S,4R)-1-(((1-(2-hydroxyethyl)piperidin-4-yl)methyl)sulfonyl)-3-methylpiperidin-4-yl)isoxazole-3-carboxamide], the IC50 at SMYD3 [1] (Table 2A) is 23.7 nM; on SMYD3 [2] (Table 2A), 231 nM.

For `C[C@H]1CNCCN1S(=O)(=O)N1CC[C@H](NC(=O)c2cc(C3CC3)on2)C[C@@H]1C` [compound 624, 5-cyclopropyl-N-((2S,4S)-2-methyl-1-(((S)-2-methylpiperazin-1-yl)sulfonyl)piperidin-4-yl)isoxazole-3-carboxamide], the figures for the IC50 at SMYD3 [1] (Table 2A) and on SMYD3 [2] (Table 2A) were 24.6 nM and 284 nM, respectively.

As to `C[C@H]1CN(S(=O)(=O)CC2CCN(C)CC2)CC[C@H]1NC(=O)c1cc(C2CC2)on1` [compound 625, 5-cyclopropyl-N-((3S,4R)-3-methyl-1-(((1-methylpiperidin-4-yl)methyl)sulfonyl)piperidin-4-yl)isoxazole-3-carboxamide], the IC50 on SMYD3 [1] (Table 2A) came out at 25.3 nM; at SMYD3 [2] (Table 2A), 224 nM.

On to `C[C@H]1C[C@@H](NC(=O)c2cc(C3CC3)on2)CCN1S(=O)(=O)N1C[C@H]2C[C@@H]1CN2C` [compound 626, 5-cyclopropyl-N-((2S,4S)-2-methyl-1-(((1R,4R)-5-methyl-2,5-diazabicyclo[2.2.1]heptan-2-yl)sulfonyl)piperidin-4-yl)isoxazole-3-carboxamide], for which the values for the IC50 at SMYD3 [1] (Table 2A) and at SMYD3 [2] (Table 2A) were 25.3 nM and 157 nM, respectively.

For `C[C@H]1CN(S(=O)(=O)c2ccc(C(C)(C)N)cc2)CC[C@H]1NC(=O)c1cc(C2CC2)on1` [compound 627, N-((3S,4R)-1-((4-(2-aminopropan-2-yl)phenyl)sulfonyl)-3-methylpiperidin-4-yl)-5-cyclopropylisoxazole-3-carboxamide], the 50% inhibitory concentration (IC50) at SMYD3 [1] (average of n = 1 to n = 50) was 26.5 nM; on SMYD3 [2] (average of n = 1 to n = 50), 243 nM.
